Legend:
[1] = test system: FPf8T (plasmodium telomeric quadruplex-DNA); test: FRET-melting assay with FPf8T; format: binding, Plasmodium falciparum; conditions: 0.2 μM FPf8T, 1 μM compound
Experimental: (§1) Stabilization, and so interaction, of compounds with quadruplex-structure is monitored via FRET-melting assay, in a version that also enables the determination of the quadruplex-over duplex-DNA selectivity as well as the intra-quadruplex selectivity (17).
(§2) FRET assay is performed with oligonucleotides that mimic the human or plasmodium telomeric sequences, and equipped with FRET partners at each extremities: F21T (FAM-G3[T2AG3]3-Tamra,) FPf1T (FAM-G3[T3AG3]3-Tamra) and FPf8T (FAM-G3[T2CAG3]3-Tamra) with FAM: 6-carboxyfluorescein and Tamra: 6-carboxy-tetramethylrhodamine). Measurements were made with excitation at 492 nm and detection at 516 nm.
(§3) Fluorescence melting were carried out. The results are given on FIG. 3A-FIG. 3C. The experiments were carried out with 0.2 μM of F21T, FPf1T or FPf8T in a buffer containing 10 mM lithium cacodylate pH 7.2 and 100 mM NaCl or KCl (see example of F21T below, NaCl (left) and KCl (right)); the melting of the quadruplex-DNA was monitored alone and in the presence of 1 μM (5 equiv.) of compound 3.

[2] = test system: FPf1T (plasmodium telomeric quadruplex-DNA); test: FRET-melting assay with FPf1T; format: binding, Plasmodium falciparum; conditions: 0.2 μM FPf1T, 1 μM compound
Experimental: as §1, §2, §3

[3] = test system: F21T (human telomeric quadruplex-DNA); test: FRET-melting assay with F21T; format: binding; conditions: for ΔT1/2 F21T: 0.2 μM F21T, 1 μM compound; for F21T stabilization maintained: sodium buffer
Experimental: as §1, §2, §3
Fluorescence melting are carried out with 0.2 μM of F21T in a buffer containing 10 mM lithium cacodylate pH 7.2 and 100 mM NaCl; the melting of the G-quadruplex was monitored alone and in the presence of 1 μM of compound 3 without or with excess (1, 3 and 10 μM) of duplex-DNA competitor ds26 (a 26 base-pair duplex-DNA comprised of the self complementary sequence [5′-[…]-3′]). The results are given on FIG. 4
Fluorescence melting experiments are carried out with 0.2 μM of F21T in a buffer containing 10 mM lithium cacodylate pH 7.2 and 100 mM NaCl; the melting of the G-quadruplex was monitored alone and in the presence of 1 μM of compound 3 without or with excess (1, 3 and 10 μM) of quadruplex-DNA competitors, both TG5T ([(5′-TG5T-3′)4], a tetramolecular quadruplex-DNA used in previous study (21) or c-myc ([5′-[…]-3′], a sequence present in the promoter region of the oncogene c-myc, highly suspected to fold into an intramolecular quadruplex-structure (22-25). The results are given on FIG. 5A-FIG. 5B.
FIG. 16 gives results obtained in FRET-melting, using the same sodium conditions as above defined in a) and b), with compounds 3 and 4. The melting of the Fluorescently labelled quadruplex F21T was monitored alone and in the presence of 1 μM of compound 3 or compound 4 without or with excess (1.3 and 10 μM) of duplex-DNA competitor ds26 (a 26 base-pair duplex DNA comprised the above mentioned self-complementary sequence [5′-[…]-3′]).

[4] = UV-Vis titrations for solubility; format: physicochemical
Experimental: The study of UV-vis properties of pyridine-based polyheteroaromatic compounds detailed in this study enable the determination of their solubility in various conditions (DMSO, H2O and cacodylate buffers (10 mM sodium cacodylate+100 mM NaCl (for Caco.Na) or KCl (for Caco.K)): the simplest method for this is to measure the absorption spectra of compound 3 at various concentrations (from 0 to 32 μM); solubility of compound 3 is thus evaluated through the reporting of its absorbance at a given wavelength (herein 338 nm (A338)) as a function of the concentration of compound 3 and applying the Beer-Lambert law.

hPOT1 = test: Electrophoretic mobility shift assay, POT1/22AG binding; set-up: species or system human; conditions: 30 nM hPOT1, 20 nM 32P-22AG, 30 min room temperature
Experimental: An electrophoretic mobility shift assay using hPOT1 was performed on the telomeric 22AG oligonucleotide (see above). 22AG was labeled at the 5′ end with [γ-^32P]-ATP using T4 polynucletide kinase. Purified recombinant hPOT1 was produced in a baculovirus expression system. The POT1/22AG binding assay was performed in a total volume of 10 μl containing 50 mM HEPES, pH 7.9, 100 mM NaCl, 0.1 mM EDTA, 4% w/v sucrose, 2% v/v glycerol, 0.1 mg/ml BSA, 0.02% w/v bromophenol blue, 30 nM hPOT1, 20 nM [[…]-^32P]-22AG. Different concentrations of compound 3 (10, 1, 0.1 and 0.01 μM) were added with hPOT1 to the solution and the mixture was incubated at room temperature for 30 min. Each individual sample was separated by electroporesis on 1% agarose gel in 0.5×Tris-Borate-EDTA buffer. The gel was run at 80V for 35 min, dried on whatman DE81 paper and radiaoactivity visualized by a phosphorimager (Typhoon 9210, Amersham). Analysis of the data was carried out by ImageQuant software (Amersham) and results were expressed as a percentage of the POT1-22AG complex obtained in the untreated control (defined as 100%) (see FIG. 14).

c-myc quadruplex-DNA = test: Fluorescence titration with c-myc; format: binding; conditions: 0.25 μM compound, cacodylate buffer + 100 mM KCl, λex=340 nm
Experimental: The intra-quadruplex selectivity is evaluated through fluorescence titrations by comparison of experiments carried out with 22AG (see above) and with two other quadruplex-structures: c-myc and c-kit2. The formation of these two quadruplex-DNAs is currently highly suspected in the promoter region of c-myc (see above) and c-kit (22; 29 and 30)oncogenes. The sequences are the following: c-myc: [5′-[…]-3′] and c-kit2: [(5′-[…]-3′]; Quadruplex-structures are prepared by heating the corresponding oligonucleotide at 90° C. for 5 min in a 10 mM sodium cacodylate buffer pH 7.2, 100 mM KCl and cooling in ice to favor the intramolecular folding by kinetic trapping. Concentrations are determined by UV-Vis measurements (after thermal denaturation, 5 min at 85° C.) at 260 nm before use.

In the case of c1cc(-c2cnc(-c3cccc(-c4cnco4)n3)o2)nc(-c2cnc(-c3cccc(-c4cnco4)n3)o2)c1 [compound 3, 2,6-bis{2-[6-(oxazol-5-yl)pyridin-2-yl]oxazol-5-yl}pyridine], the “ΔT1/2 FPf8T” value ([1]; K+ (100 mM KCl)) is reported as 1.5 °C, the “ΔT1/2 FPf8T” value ([1]; Na+ (100 mM NaCl)) is reported as 16.3 °C and the “ΔT1/2 FPf1T” value ([2]; K+ (100 mM KCl)) is reported as 2.1 °C. The “ΔT1/2 FPf1T” value ([2]; Na+ (100 mM NaCl)) was 20.4 °C, the “ΔT1/2 F21T” value ([3]; K+ (100 mM KCl)) was 1.3 °C and the “ΔT1/2 F21T” value ([3]; Na+ (100 mM NaCl)) was 14.6 °C. For the same molecule, the F21T stabilization maintained ([3]; 1 μM of TG5T competitor) was 61%, the F21T stabilization maintained ([3]; 1 μM of c-myc competitor) was 42% and the F21T stabilization maintained ([3]; 3 μM of TG5T competitor) was 37%. For the same molecule, the F21T stabilization maintained ([3]; 3 μM of c-myc competitor) was 15%, the F21T stabilization maintained ([3]; 10 μM of TG5T competitor) was 17% and the F21T stabilization maintained ([3]; 10 μM of c-myc competitor) was 1%. The F21T stabilization maintained ([3]; in presence of 1, 3 or 10 μM of ds26 duplex competitor) was > 91%, the solubility ([4]; DMSO, H2O and aqueous cacodylate buffers (Na+ or K+-rich), A338, 0 to 32 μM) was “soluble in all the solvent systems used herein” and the self-aggregation ([4]; within the 0 to 32 μM concentration range, all solvent systems) was “does not self-aggregate”. The melting point was > 250 °C, the IC50 (hPOT1) was 300 nM and the “fluorescence of compound upon addition of c-myc” value (c-myc quadruplex-DNA) was “progressive quench of the fluorescence”.
